Measured values: ChEMBL document CHEMBL4270561, “Biological activity of doubly modified salinomycin analogs - Evaluation in vitro and ex vivo” (Eur J Med Chem, 2018)

Assays:
[1] = Selectivity index, ratio of IC50 for human MCF10A cells to IC50 for human ALL5 cells; assay type: toxicity; conditions: MCF10A cells versus ALL5 cells, read-out: Ratio IC50
SK-BR-3 = assay: Antiproliferative activity against human SK-BR-3 cells after 72 hrs by SRB assay; assay type: functional, cell-based; conditions: SK-BR-3, 72 h
[2] = Selectivity index, ratio of IC50 for human MCF10A cells to IC50 for human JIMT1 cells; assay type: toxicity; conditions: MCF10A cells versus JIMT1 cells, read-out: Ratio IC50
[3] = Selectivity index, ratio of IC50 for human MCF10A cells to IC50 for human LoVo cells; assay type: toxicity; conditions: MCF10A cells versus LoVo cells, read-out: Ratio IC50
[4] = Antiproliferative activity against human ALL5 cells after 120 hrs by MTT assay; assay type: functional, cell-based; conditions: ALL5, 120 h
MCF7 = assay: Antiproliferative activity against human MCF7 cells after 72 hrs by SRB assay; assay type: functional, cell-based; conditions: MCF7, 72 h
[5] = Selectivity index, ratio of IC50 for human MCF10A cells to IC50 for human SK-BR-3 cells; assay type: toxicity; conditions: MCF10A cells versus SK-BR-3 cells, read-out: Ratio IC50
[6] = Resistance index, ratio of IC50 for human LoVo/DX cells to IC50 for human LoVo cells; assay type: functional
[7] = Selectivity index, ratio of IC50 for human MCF10A cells to IC50 for human MCF7 cells; assay type: toxicity; conditions: MCF10A cells versus MCF7 cells, read-out: Ratio IC50
[8] = Antiproliferative activity against human LoVo/DX cells after 72 hrs by SRB assay; assay type: functional, cell-based
JIMT-1 = assay: Antiproliferative activity against human JIMT1 cells after 72 hrs by SRB assay; assay type: functional, cell-based; conditions: JIMT-1, 72 h
MCF-10A [9] = assay: Antiproliferative activity against human MCF10A cells after 72 hrs by SRB assay; assay type: cell-based
LoVo = assay: Antiproliferative activity against human LoVo cells after 72 hrs by SRB assay; assay type: functional, cell-based
[10] = Selectivity index, ratio of IC50 for human MCF10A cells to IC50 for human LoVo/DX cells; assay type: toxicity; conditions: MCF10A cells versus LoVo/DX cells, read-out: Ratio IC50
[11] = Cell cycle arrest in human ALL5 cells assessed as accumulation at G0/G1 phase at 5 times antiproliferative IC50 after 24 hrs by propidium iodide staining based flow cytometry (reference value: 79.7%); assay type: functional
[12] = Cell cycle arrest in human ALL5 cells assessed as accumulation at G0/G1 phase at 5 times antiproliferative IC50 after 48 hrs by propidium iodide staining based flow cytometry (reference value: 69.6%); assay type: functional
[13] = Cell cycle arrest in human ALL5 cells assessed as accumulation at sub-G1 phase at 5 times antiproliferative IC50 after 96 hrs by propidium iodide staining based flow cytometry (reference value: 12%); assay type: functional
[14] = Cell cycle arrest in human ALL5 cells assessed as accumulation at G2/M-phase at 5 times antiproliferative IC50 after 48 hrs by propidium iodide staining based flow cytometry (reference value: 13.2%); assay type: functional
[15] = Cell cycle arrest in human ALL5 cells assessed as accumulation at sub-G1 phase at 5 times antiproliferative IC50 after 48 hrs by propidium iodide staining based flow cytometry (reference value: 7.8%); assay type: functional
[16] = Cell cycle arrest in human ALL5 cells assessed as accumulation at S-phase at 5 times antiproliferative IC50 after 48 hrs by propidium iodide staining based flow cytometry (reference value: 9.82%); assay type: functional
[17] = Cell cycle arrest in human ALL5 cells assessed as accumulation at G2/M-phase at 5 times antiproliferative IC50 after 96 hrs by propidium iodide staining based flow cytometry (reference value: 11.1%); assay type: functional
[18] = Cell cycle arrest in human ALL5 cells assessed as accumulation at G2/M-phase at 5 times antiproliferative IC50 after 24 hrs by propidium iodide staining based flow cytometry (reference value: 7.98%); assay type: functional
[19] = Cell cycle arrest in human ALL5 cells assessed as accumulation at G0/G1 phase at 5 times antiproliferative IC50 after 96 hrs by propidium iodide staining based flow cytometry (reference value: 69.8%); assay type: functional
[20] = Cell cycle arrest in human ALL5 cells assessed as accumulation at S-phase at 5 times antiproliferative IC50 after 24 hrs by propidium iodide staining based flow cytometry (reference value: 6.76%); assay type: functional
[21] = Cell cycle arrest in human ALL5 cells assessed as accumulation at S-phase at 5 times antiproliferative IC50 after 96 hrs by propidium iodide staining based flow cytometry (reference value: 7.52%); assay type: functional
[22] = Cell cycle arrest in human ALL5 cells assessed as accumulation at sub-G1 phase at 5 times antiproliferative IC50 after 24 hrs by propidium iodide staining based flow cytometry (reference value: 6.07%); assay type: functional
MCF-10A [23] = assay: Antiproliferative activity against human MCF10A cells at 100 ug/ml after 72 hrs by SRB assay relative to control; assay type: cell-based

SMILES	selectivity ratio [1]	IC50 (SK-BR-3) [µM]	selectivity ratio [2]	selectivity ratio [3]	IC50 [4] [µM]	IC50 (MCF7) [µM]	selectivity ratio [5]	Ratio IC50 [6]	selectivity ratio [7]	IC50 [8] [µM]	IC50 (JIMT-1) [µM]	IC50 (MCF-10A [9]) [µM]	IC50 (LoVo) [µM]	selectivity ratio [10]	Activity [11] [%]	Activity [12] [%]	Activity [13] [%]	Activity [14] [%]	Activity [15] [%]	Activity [16] [%]	further results
CC[C@@H](C(=O)[C@@H](C)[C@@H](O)[C@H](C)[C@@H]1O[C@@H]([C@@H](CC)C(=O)NCCc2ccc(F)cc2)CC[C@@H]1C)[C@H]1O[C@]2(C=C[C@@H](O)[C@]3(CC[C@@](C)([C@H]4CC[C@](O)(CC)[C@H](C)O4)O3)O2)[C@H](C)C[C@@H]1C	24	5.6	7.8	11	1.7	4.1	7.1	0.66	9.8	2.5	5.1	40	3.8	16	–	–	–	–	–	–	–
CC[C@@H](C(=O)[C@@H](C)[C@@H](O)[C@H](C)[C@@H]1O[C@@H]([C@@H](CC)C(=O)OCC(F)(F)F)CC[C@@H]1C)[C@H]1O[C@]2(C=C[C@@H](O)[C@]3(CC[C@@](C)([C@H]4CC[C@](O)(CC)[C@H](C)O4)O3)O2)[C@H](C)C[C@@H]1C	36	17	9.3	11	1.2	4.4	2.5	1	9.8	3.9	4.6	43	3.9	11	–	–	–	–	–	–	–
C#CCOC(=O)[C@H](CC)[C@H]1CC[C@H](C)[C@H]([C@@H](C)[C@H](O)[C@H](C)C(=O)[C@H](CC)[C@H]2O[C@]3(C=C[C@@H](O)[C@]4(CC[C@@](C)([C@H]5CC[C@](O)(CC)[C@H](C)O5)O4)O3)[C@H](C)C[C@@H]2C)O1	16	8.5	8.7	14	3.3	4.3	6.4	0.67	13	2.6	6.2	54	3.9	21	71.3	51.7	49.8	5.35	39.8	3.58	Activity [17]: 4.64%; Activity [18]: 8.24%; Activity [19]: 42.8%; Activity [20]: 4.34%; Activity [21]: 2.95%; Activity [22]: 16.2%
CCNC(=O)O[C@@H]1C=C[C@]2(O[C@H]([C@@H](CC)C(=O)[C@@H](C)[C@@H](O)[C@H](C)[C@@H]3O[C@@H]([C@@H](CC)C(=O)NCCc4ccc(F)cc4)CC[C@@H]3C)[C@@H](C)C[C@H]2C)O[C@@]12CC[C@@](C)([C@H]1CC[C@](O)(CC)[C@H](C)O1)O2	20	4.3	13	17	2.9	3.8	13	0.94	15	3.3	4.4	58	3.5	18	80.9	71.6	53.7	5.34	21.8	1.5	Activity [17]: 1.82%; Activity [18]: 6.14%; Activity [19]: 42.5%; Activity [20]: 3.8%; Activity [21]: 2.28%; Activity [22]: 9.23%
C#CCNC(=O)[C@H](CC)[C@H]1CC[C@H](C)[C@H]([C@@H](C)[C@H](O)[C@H](C)C(=O)[C@H](CC)[C@H]2O[C@]3(C=C[C@@H](OC(=O)OCC)[C@]4(CC[C@@](C)([C@H]5CC[C@](O)(CC)[C@H](C)O5)O4)O3)[C@H](C)C[C@@H]2C)O1	–	16	–	–	17	4.9	–	0.81	–	3.8	7.9	–	4.7	–	–	–	–	–	–	–	Activity (MCF-10A [23]): <= 50%
C#CCNC(=O)[C@H](CC)[C@H]1CC[C@H](C)[C@H]([C@@H](C)[C@H](O)[C@H](C)C(=O)[C@H](CC)[C@H]2O[C@]3(C=C[C@@H](OC(=O)NCC)[C@]4(CC[C@@](C)([C@H]5CC[C@](O)(CC)[C@H](C)O5)O4)O3)[C@H](C)C[C@@H]2C)O1	22	7.7	14	20	3.7	4.7	11	0.9	17	3.8	5.9	82	4.2	22	77.8	65.9	70.8	6.44	26.1	1.8	Activity [17]: 1.55%; Activity [18]: 6.08%; Activity [19]: 25.2%; Activity [20]: 4.1%; Activity [21]: 2.73%; Activity [22]: 12.2%
CCNC(=O)O[C@@H]1C=C[C@]2(O[C@H]([C@@H](CC)C(=O)[C@@H](C)[C@@H](O)[C@H](C)[C@@H]3O[C@@H]([C@@H](CC)C(=O)OCC(F)(F)F)CC[C@@H]3C)[C@@H](C)C[C@H]2C)O[C@@]12CC[C@@](C)([C@H]1CC[C@](O)(CC)[C@H](C)O1)O2	40	64	5.5	11	1.5	6.1	0.94	1.4	9.8	7.5	11	60	5.3	8	76	64.1	27.8	11.8	19.8	4.5	Activity [17]: 11%; Activity [18]: 8.15%; Activity [19]: 56%; Activity [20]: 4.98%; Activity [21]: 5.42%; Activity [22]: 11%
C#CCNC(=O)[C@H](CC)[C@H]1CC[C@H](C)[C@H]([C@@H](C)[C@H](O)[C@H](C)C(=O)[C@H](CC)[C@H]2O[C@]3(C=C[C@@H](OC(C)=O)[C@]4(CC[C@@](C)([C@H]5CC[C@](O)(CC)[C@H](C)O5)O4)O3)[C@H](C)C[C@@H]2C)O1	23	12	5.4	21	4	5.8	7.7	0.84	16	3.7	17	92	4.4	25	77.1	58.9	76.3	5.11	34.3	1.75	Activity [17]: 1.27%; Activity [18]: 5.01%; Activity [19]: 20.6%; Activity [20]: 3.48%; Activity [21]: 2.15%; Activity [22]: 14.5%
